Measurements as given in PubChem BioAssay (NCI).
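48-hour exposure; five concentrations; linearly interpolated endpoints. Abbreviation: GI50, concentration required for 50% inhibition of growth. TGI: concentration producing complete growth inhibition.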

Columns and labels:
Test in all cases: DTP human tumour cell line panel, 48 h
SNB-19 CNS = tested on: SNB-19 CNS
HCT-116 colon = tested on: HCT-116 colon
BT-549 breast = tested on: BT-549 breast
RPMI-8226 leukemia = tested on: RPMI-8226 leukemia
MOLT-4 leukemia = tested on: MOLT-4 leukemia
HS 578T breast = tested on: HS 578T breast
MCF7 breast = tested on: MCF7 breast
K-562 leukemia = tested on: K-562 leukemia
NCI/ADR-RES ovarian = tested on: NCI/ADR-RES ovarian
SF-295 CNS = tested on: SF-295 CNS
CCRF-CEM leukemia = tested on: CCRF-CEM leukemia
SK-OV-3 ovarian = tested on: SK-OV-3 ovarian
HT29 colon = tested on: HT29 colon
SK-MEL-2 melanoma = tested on: SK-MEL-2 melanoma
U251 CNS = tested on: U251 CNS
LOX IMVI melanoma = tested on: LOX IMVI melanoma
EKVX NSCLC = tested on: EKVX NSCLC
DU-145 prostate = tested on: DU-145 prostate
SK-MEL-28 melanoma = tested on: SK-MEL-28 melanoma
HL-60(TB) leukemia = tested on: HL-60(TB) leukemia
MDA-MB-435 = tested on: MDA-MB-435
TK-10 renal = tested on: TK-10 renal
ACHN renal = tested on: ACHN renal
OVCAR-3 ovarian = tested on: OVCAR-3 ovarian
UACC-257 melanoma = tested on: UACC-257 melanoma
HOP-92 NSCLC = tested on: HOP-92 NSCLC
RXF 393 renal = tested on: RXF 393 renal
NCI-H460 lung = tested on: NCI-H460 lung
CAKI-1 renal = tested on: CAKI-1 renal
SNB-75 CNS = tested on: SNB-75 CNS
COLO 205 colon = tested on: COLO 205 colon
UACC-62 melanoma = tested on: UACC-62 melanoma
SF-268 CNS = tested on: SF-268 CNS
T-47D breast = tested on: T-47D breast
OVCAR-5 ovarian = tested on: OVCAR-5 ovarian
OVCAR-4 ovarian = tested on: OVCAR-4 ovarian
786-0 renal = tested on: 786-0 renal
HCT-15 colon = tested on: HCT-15 colon
SR leukemia = tested on: SR leukemia
M14 melanoma = tested on: M14 melanoma
HOP-62 NSCLC = tested on: HOP-62 NSCLC
IGROV1 ovarian = tested on: IGROV1 ovarian
A498 renal = tested on: A498 renal
OVCAR-8 ovarian = tested on: OVCAR-8 ovarian
NCI-H23 lung = tested on: NCI-H23 lung
A549 NSCLC = tested on: A549 NSCLC
NCI-H522 lung = tested on: NCI-H522 lung
SW-620 colon = tested on: SW-620 colon
UO-31 renal = tested on: UO-31 renal
PC-3 prostate = tested on: PC-3 prostate
SF-539 CNS = tested on: SF-539 CNS
MDA-MB-231 breast = tested on: MDA-MB-231 breast
KM12 colon = tested on: KM12 colon
SN12C renal = tested on: SN12C renal
MALME-3M melanoma = tested on: MALME-3M melanoma
HCC-2998 colon = tested on: HCC-2998 colon
NCI-H226 lung = tested on: NCI-H226 lung
SK-MEL-5 melanoma = tested on: SK-MEL-5 melanoma

Structure (SMILES): O=C1NC(=O)/C(=C/c2c(Cl)nc3sccn23)S1
- GI50 (SNB-19 CNS): > 79.1 µM
- TGI (SNB-19 CNS): > 100 µM
- GI50 (HCT-116 colon): 80.4 µM
- TGI (HCT-116 colon): > 100 µM
- GI50 (BT-549 breast): > 84.5 µM
- TGI (BT-549 breast): > 100 µM
- GI50 (RPMI-8226 leukemia): 36.1 µM
- TGI (RPMI-8226 leukemia): > 100 µM
- GI50 (MOLT-4 leukemia): > 100 µM
- TGI (MOLT-4 leukemia): > 100 µM
- GI50 (HS 578T breast): 30.9 µM
- TGI (HS 578T breast): > 100 µM
- GI50 (MCF7 breast): > 65.4 µM
- TGI (MCF7 breast): > 100 µM
- GI50 (K-562 leukemia): 68.9 µM
- TGI (K-562 leukemia): > 100 µM
- GI50 (NCI/ADR-RES ovarian): > 100 µM
- TGI (NCI/ADR-RES ovarian): > 100 µM
- GI50 (SF-295 CNS): 64.4 µM
- TGI (SF-295 CNS): > 100 µM
- GI50 (CCRF-CEM leukemia): 71.2 µM
- TGI (CCRF-CEM leukemia): > 100 µM
- GI50 (SK-OV-3 ovarian): > 70.1 µM
- TGI (SK-OV-3 ovarian): > 100 µM
- GI50 (HT29 colon): > 100 µM
- TGI (HT29 colon): > 100 µM
- GI50 (SK-MEL-2 melanoma): > 100 µM
- TGI (SK-MEL-2 melanoma): > 100 µM
- GI50 (U251 CNS): > 81.1 µM
- TGI (U251 CNS): > 100 µM
- GI50 (LOX IMVI melanoma): 57 µM
- TGI (LOX IMVI melanoma): > 100 µM
- GI50 (EKVX NSCLC): > 66.1 µM
- TGI (EKVX NSCLC): > 100 µM
- GI50 (DU-145 prostate): > 100 µM
- TGI (DU-145 prostate): > 100 µM
- GI50 (SK-MEL-28 melanoma): > 82.4 µM
- TGI (SK-MEL-28 melanoma): > 100 µM
- GI50 (HL-60(TB) leukemia): > 100 µM
- TGI (HL-60(TB) leukemia): > 100 µM
- GI50 (MDA-MB-435): 97.3 µM
- TGI (MDA-MB-435): > 100 µM
- GI50 (TK-10 renal): > 57.6 µM
- TGI (TK-10 renal): > 100 µM
- GI50 (ACHN renal): > 100 µM
- TGI (ACHN renal): > 100 µM
- GI50 (OVCAR-3 ovarian): > 70.9 µM
- TGI (OVCAR-3 ovarian): > 100 µM
- GI50 (UACC-257 melanoma): > 91.9 µM
- TGI (UACC-257 melanoma): > 100 µM
- GI50 (HOP-92 NSCLC): 20.9 µM
- TGI (HOP-92 NSCLC): > 100 µM
- GI50 (RXF 393 renal): > 65.7 µM
- TGI (RXF 393 renal): > 100 µM
- GI50 (NCI-H460 lung): > 75.8 µM
- TGI (NCI-H460 lung): > 100 µM
- GI50 (CAKI-1 renal): > 100 µM
- TGI (CAKI-1 renal): > 100 µM
- GI50 (SNB-75 CNS): > 100 µM
- TGI (SNB-75 CNS): > 100 µM
- GI50 (COLO 205 colon): > 86.6 µM
- TGI (COLO 205 colon): > 100 µM
- GI50 (UACC-62 melanoma): 42.3 µM
- TGI (UACC-62 melanoma): > 100 µM
- GI50 (SF-268 CNS): > 57.1 µM
- TGI (SF-268 CNS): > 100 µM
- GI50 (T-47D breast): 31.3 µM
- TGI (T-47D breast): > 75.8 µM
- GI50 (OVCAR-5 ovarian): > 74.6 µM
- TGI (OVCAR-5 ovarian): > 100 µM
- GI50 (OVCAR-4 ovarian): > 100 µM
- TGI (OVCAR-4 ovarian): > 100 µM
- GI50 (786-0 renal): > 85.8 µM
- TGI (786-0 renal): > 100 µM
- GI50 (HCT-15 colon): > 74.9 µM
- TGI (HCT-15 colon): > 100 µM
- GI50 (SR leukemia): 37.6 µM
- TGI (SR leukemia): > 100 µM
- GI50 (M14 melanoma): 66.4 µM
- TGI (M14 melanoma): > 100 µM
- GI50 (HOP-62 NSCLC): > 100 µM
- TGI (HOP-62 NSCLC): > 100 µM
- GI50 (IGROV1 ovarian): > 100 µM
- TGI (IGROV1 ovarian): > 100 µM
- GI50 (A498 renal): 1.01 µM
- TGI (A498 renal): 46.1 µM
- GI50 (OVCAR-8 ovarian): > 100 µM
- TGI (OVCAR-8 ovarian): > 100 µM
- GI50 (NCI-H23 lung): > 56.4 µM
- TGI (NCI-H23 lung): > 100 µM
- GI50 (A549 NSCLC): > 100 µM
- TGI (A549 NSCLC): > 100 µM
- GI50 (NCI-H522 lung): > 100 µM
- TGI (NCI-H522 lung): > 100 µM
- GI50 (SW-620 colon): > 100 µM
- TGI (SW-620 colon): > 100 µM
- GI50 (UO-31 renal): > 100 µM
- TGI (UO-31 renal): > 100 µM
- GI50 (PC-3 prostate): > 87.7 µM
- TGI (PC-3 prostate): > 100 µM
- GI50 (SF-539 CNS): > 31.8 µM
- TGI (SF-539 CNS): > 83.8 µM
- GI50 (MDA-MB-231 breast): 28.7 µM
- TGI (MDA-MB-231 breast): > 100 µM
- GI50 (KM12 colon): > 100 µM
- TGI (KM12 colon): > 100 µM
- GI50 (SN12C renal): > 51.5 µM
- TGI (SN12C renal): > 100 µM
- GI50 (MALME-3M melanoma): > 59.7 µM
- TGI (MALME-3M melanoma): > 100 µM
- GI50 (HCC-2998 colon): > 100 µM
- TGI (HCC-2998 colon): > 100 µM
- GI50 (NCI-H226 lung): 14.2 µM
- TGI (NCI-H226 lung): > 100 µM
- GI50 (SK-MEL-5 melanoma): 35.5 µM
- TGI (SK-MEL-5 melanoma): > 100 µM
